Results: patent US10548899B2, “Quinazolinone and benzotriazinone compounds with cholinergic muscarinin M1 receptor positive allosteric modulator activity” (TAKEDA PHARMACEUTICAL COMPANY LIMITED, priority 2015, dated 2020)

Molecular target: T1, human M1 receptor (hCHRM1) (Homo sapiens, UniProt P11229)
T1 construct: expressed in transfected cells; host or cells: CHO-K1
T1 sequence (P11229 1-460): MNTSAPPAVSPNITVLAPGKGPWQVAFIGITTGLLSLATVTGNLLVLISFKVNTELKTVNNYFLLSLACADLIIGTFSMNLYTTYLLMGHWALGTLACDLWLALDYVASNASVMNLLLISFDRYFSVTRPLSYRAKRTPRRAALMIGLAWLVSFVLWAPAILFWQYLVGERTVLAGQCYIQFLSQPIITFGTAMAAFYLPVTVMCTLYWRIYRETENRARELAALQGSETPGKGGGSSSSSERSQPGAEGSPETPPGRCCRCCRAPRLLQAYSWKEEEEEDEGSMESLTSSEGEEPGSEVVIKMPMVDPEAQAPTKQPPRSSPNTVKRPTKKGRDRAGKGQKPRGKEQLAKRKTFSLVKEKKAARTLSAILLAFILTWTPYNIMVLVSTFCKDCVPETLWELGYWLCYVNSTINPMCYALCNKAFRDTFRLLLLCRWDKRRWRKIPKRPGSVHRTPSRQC
Assay: Measurement of M1 receptor positive allosteric modulator (M1PAM) activity (calcium fluorescence, Fluo-4, FDSS)
Type: cell-based
Conditions: for activity (%) at 10 μM: 10 μM test compound, acetylcholine EC20 (final 0.8 nM) present, 100% = acetylcholine 1 μM, 0% = DMSO, CHO-K1 hCHRM1 cells; for EC50: inflection point of concentration-dependent curve, CHO-K1 cells stably expressing hCHRM1, in presence of acetylcholine at EC20 concentration (final 0.8 nM), read-out: IP value
Procedure: Measurement of M1 receptor positive allosteric modulator (M1PAM) activity
The activity of a test compound in the presence of acetylcholine at EC20 concentration (final concentration 0.8 nM), which affords an action corresponding to about 20% of the maximum activity, was measured as PAM activity. The method is as follows. CHO-K1 cells stably expressing a human M1 receptor (hCHRM1) were plated on a 384-well black clear bottom plate (BD Falcon) at 5,000 cells/well, and cultured in an incubator at 37° C., 5% CO2 for 1 day. The medium in the cell plate was removed, and assay buffer A containing a calcium indicator (Recording medium (DOJINDO LABORATORIES), 0.1% BSA (Wako Pure Chemical Industries, Ltd.), 2.5 μg/mL Fluo-4 AM (DOJINDO LABORATORIES), 0.08% Pluronic F127 (DOJINDO LABORATORIES) and 1.25 mM probenecid (DOJINDO LABORATORIES) were added at 30 μL/well. The cells were left standing in the incubator at 37° C., 5% CO2 for 30 min, and further left standing at room temperature for 30 min. A test compound prepared by diluting with assay buffer B (HESS (Invitrogen), 20 mM HEPES (Invitrogen), 0.1% BSA) containing 3.2 nM acetylcholine was added at 10 μL/well, and the fluorescence was measured by FDSS/μcell (Hamamatsu Photonics K.K.) for 1 min every for 1 second. With the definition that the amount of change in the fluorescence on addition of acetylcholine (final concentration 1 μM) is 100% and that on addition of DMSO instead of a test compound is 0%, the activity (%) of the test compound was calculated, and the inflection point in the concentration-dependent curve of the test compound was calculated as IP values.

| Compound | activity (%) at 10 μM [%] | EC50 [nM] |
| --- | --- | --- |
| Cc1c(Cc2ccc(-c3cnn(C)c3)nc2)cc2c(=O)n(CC3CCCO3)nnc2c1C (stereo not shown) [Example 39, 7,8-dimethyl-6-((6-(1-methyl-1H-pyrazol-4-yl)pyridin-3-yl)methyl)-3-(tetrahydrofuran-2-ylmethyl)-1,2,3-benzotriazin-4(3H)-one] | 97 | 85 |
| Cc1c(Cc2ccc(-c3ccn(C)n3)nc2)cc2c(=O)n(CC3CCCO3)nnc2c1Cl (stereo not shown) [Example 45, 8-chloro-7-methyl-6-((6-(1-methyl-1H-pyrazol-3-yl)pyridin-3-yl)methyl)-3-(tetrahydrofuran-2-ylmethyl)1,2,3-benzotriazin-4(3H)-one] | 95 | 25 |
| Cc1cc2nnn([C@H]3COCC[C@@H]3O)c(=O)c2cc1Cc1ccc(-c2ccn(C)n2)cc1 [Example 48, 3-((3S,4S)-4-hydroxytetrahydro-2H-pyran-3-yl)-7-methyl-6-(4-(1-methyl-1H-pyrazol-3-yl)benzyl)-1,2,3-benzotriazin-4(3H)-one] | 98 | 59 |
| Cc1c(Cc2ccc(Cl)nc2)cc2c(=O)n([C@H]3CCCC[C@@H]3O)cnc2c1C [Example 54, 6-((6-chloropyridin-3-yl)methyl)-3-((1S,2S)-2-hydroxycyclohexyl)-7,8-dimethylquinazolin-4(3H)-one] | 96 | 23 |
| Cc1c(Cc2ccc(-c3ccn(C)n3)nc2)cc2c(=O)n([C@H]3CCCC[C@@H]3O)cnc2c1C [Example 57, 3-((1S,2S)-2-hydroxycyclohexyl)-7,8-dimethyl-6-((6-(1-methyl-1H-pyrazol-3-yl)pyridin-3-yl)methyl)quinazolin-4(3H)-one] | 98 | 7.3 |
| Cc1c(Cc2ccc(-c3ccn(C)n3)nc2)cc2c(=O)n([C@H]3COCC[C@@H]3O)nnc2c1C [Example 58, 3-((3S,4S)-4-hydroxytetrahydro-2H-pyran-3-yl)-7,8-dimethyl-6-((6-(1-methyl-1H-pyrazol-3-yl)pyridin-3-yl)methyl)-1,2,3-benzotriazin-4(3H)-one] | 95 | 14 |
| Cc1c(Cc2ccc(-c3cnn(C)c3)nc2)cc2c(=O)n([C@H]3CCCC[C@@H]3O)cnc2c1C [Example 59, 3-((1S,2S)-2-hydroxycyclohexyl)-7,8-dimethyl-6-((6-(1-methyl-1H-pyrazol-4-yl)pyridin-3-yl)methyl)quinazolin-4(3H)-one] | 94 | 4.8 |

Second part, the compound after the results:

| activity (%) at 10 μM [%] | EC50 [nM] | Compound |
| --- | --- | --- |
| 101 | 29 | Cc1c(Cc2ccc(-n3cccn3)cc2)cc2c(=O)n([C@H]3COCC[C@@H]3O)nnc2c1C [Example 41, 3-((3S,4S)-4-hydroxytetrahydro-2H-pyran-3-yl)-7,8-dimethyl-6-(4-(1H-pyrazol-1-yl)benzyl)-1,2,3-benzotriazin-4(3H)-one] |
| 100 | 14 | Cc1c(Cc2ccc(-n3cccn3)cc2)cc2c(=O)n([C@H]3COCC[C@@H]3O)nnc2c1C [Example 43, 3-((3S,4S)-4-hydroxytetrahydro-2H-pyran-3-yl)-7,8-dimethyl-6-(4-(1H-pyrazol-1-yl)benzyl)-1,2,3-benzotriazin-4(3H)-one] |
| 100 | 32 | Cc1c(Cc2ccc(-n3cccn3)nc2)cc2c(=O)n([C@H]3COCC[C@@H]3O)nnc2c1C [Example 44, 3-[(3S,4S)-4-hydroxytetrahydro-2H-pyran-3-yl]-7,8-dimethyl-6-{[6-(1H-pyrazol-1-yl)pyridin-3-yl]methyl}-1,2,3-benzotriazin-4(3H)-one] |
| 95 | 38 | Cc1c(Cc2ccc(-c3ccn(C)n3)cc2)cc2c(=O)n([C@H]3COCC[C@@H]3O)nnc2c1C [Example 47, 3-((3S,4S)-4-hydroxytetrahydro-2H-pyran-3-yl)-7,8-dimethyl-6-(4-(1-methyl-1H-pyrazol-3-yl)benzyl)-1,2,3-benzotriazin-4(3H)-one] |
| 97 | 18 | Cc1c(Cc2ccc(-n3cccn3)cc2)cc2c(=O)n([C@H]3COCC[C@@H]3O)nnc2c1F [Example 49, 8-fluoro-3-((3S,4S)-4-hydroxytetrahydro-2H-pyran-3-yl)-7-methyl-6-(4-(1H-pyrazol-1-yl)benzyl)-1,2,3-benzotriazin-4(3H)-one] |
| 99 | 7.4 | Cc1c(Cc2ccc(-n3cccn3)cc2)cc2c(=O)n([C@H]3CCOC[C@@H]3O)cnc2c1C [Example 55, 3-((3R,4S)-3-hydroxytetrahydro-2H-pyran-4-yl)-7,8-dimethyl-6-(4-(1H-pyrazol-1-yl)benzyl)quinazolin-4(3H)-one] |
| 98 | 15 | Cc1c(Cc2ccc(-n3cccn3)cc2)cc2c(=O)n([C@H]3CCOC[C@@H]3O)nnc2c1C [Example 56, 3-((3R,4S)-3-hydroxytetrahydro-2H-pyran-4-yl)-7,8-dimethyl-6-(4-(1H-pyrazol-1-yl)benzyl)-1,2,3-benzotriazin-4(3H)-one] |
